This is an account of results in patent US8372838B2, “Compounds as bradykinin B1 antagonists” (Boehringer Ingelheim International GmbH, priority 2010, dated 2013).

For data set [1], the system named is human hepatocytes. Briefly: metabolic clearance in human hepatocytes. In kind it is in vitro ADME. As to conditions: cryopreserved primary human hepatocytes, 5% human serum, 1 μM test compound, 6 h; well-stirred model, percentage of human hepatic blood flow. The text has this:
The metabolic stability can be measured by determining the decomposition in human hepatocytes and using the rate of decomposition to calculate the clearance, which in turn is expressed as a percentage of the human hepatic blood flow (% Qh). […] Thus, in the interests of achieving a long duration of activity it is highly advantageous if the active substance has a high metabolic stability (low clearance).
Description of Method for Determining Metabolic Clearance in Human Hepatocytes
The metabolic breakdown of the test substance is determined in a hepatocyte suspension. Cryopreserved primary human hepatocytes are incubated in a suitable incubation medium (e.g. Dulbecco's modified eagle medium, DMEM) which contains 5% human serum. After 30 minutes' pre-incubation in the incubator (37° C., 10% carbon dioxide) 5 μL of the test compound (80 μM, prepared from a 2 mM stock solution in dimethylsulphoxide and diluted 1:25 with incubation medium) are added to 395 μL of hepatocyte suspension (cell density in the range from 0.25-1 million cells/mL, typically 1 million cells/mL; final concentration of the test compound 1 μM). The cells are incubated for 6 hours in an incubator with an orbital agitator. At times 0, 0.5, 1, 2, 4 and 6 h, 25 μL of the medium are removed in each case. The medium removed is mixed with an excess of acetonitrile and centrifuged for 5 minutes. The supernatant is removed, evaporated to dryness under nitrogen and taken up in a mixture of 25% methanol and 0.1% formic acid. The reduction in the concentration of the test substance in the incubation medium is determined by coupling liquid chromatography with electrospray mass spectrometry. The linear phase of the decrease in the concentration of the test substance in the medium is used for the calculation. The intrinsic clearance is calculated as follows: CL_INTRINSIC=dose/AUC=(C0/CD)/(AUD+clast/k)×1000/60. C0: initial concentration in the incubation [μM], CD: cell density of the vital cells [10e6cells/mL], AUD: area under the curve [μM×h], clast: concentration of the last data point [μM], k: increase in the regression lines for the reduction in the test substance [h−1]. The intrinsic in vitro clearance calculated is now converted into the intrinsic in vivo clearance: CL_INTRINSIC_INVIVO [ml/min/kg]=(CL_INTRINSIC [μL/min/10e6cells]×hepatocellularity [10e6 cells/g liver]×liver factor [g/kg body weight])/1000 and the estimated human clearance is calculated using the well-stirred model: CL [ml/min/kg]=CL_INTRINSIC_INVIVO [ml/min/kg]×hepatic blood flow [ml/min/kg]/(CL_INTRINSIC_INVIVO [ml/min/kg]+hepatic blood flow [ml/min/kg]). […]

Data set [2] deals with T1, cynomolgus BK1-receptor (Macaca fascicularis, UniProt Q3BCU0).
T1 construct: expressed in transfected cells; host or cells: CHO cells
T1 sequence (Q3BCU0 1-352): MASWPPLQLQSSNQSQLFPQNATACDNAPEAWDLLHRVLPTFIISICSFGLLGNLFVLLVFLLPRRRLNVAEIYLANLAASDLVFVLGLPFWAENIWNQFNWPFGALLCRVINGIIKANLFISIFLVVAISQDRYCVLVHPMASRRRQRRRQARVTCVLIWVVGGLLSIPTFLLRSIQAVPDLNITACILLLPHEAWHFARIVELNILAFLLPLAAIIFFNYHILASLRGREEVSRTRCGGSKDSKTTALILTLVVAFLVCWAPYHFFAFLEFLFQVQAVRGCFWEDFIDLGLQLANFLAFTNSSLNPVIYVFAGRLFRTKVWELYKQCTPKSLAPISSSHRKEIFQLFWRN
Kind of data set: cynoBK1-receptor binding assay. The protocol:
Description of the Method of Binding the CynoBK1-Receptor
CHO cells that express the cynomolgus BK1-receptor are cultivated in “HAM'S F-12 Medium”. The medium is removed from confluent cultures, the cells are washed with PBS buffer, scraped off or detached using Versene and isolated by centrifuging. Then the cells are homogenised in suspension, the homogenate is centrifuged and resuspended. After the protein content has been determined 200 μl of the homogenate (50 to 250 μg protein/assay) are incubated for 60-180 minutes at ambient temperature with 0.5 to 5.0 nM kallidine (DesArg10,Leu9), [3,4-Prolyl-3,43H(N)] and increasing concentrations of the test substance in a total volume of 250 μl. The incubation is stopped by rapid filtration through GF/B glass fibre filters that have been pre-treated with polyethyleneimine (0.3%). The radioactivity bound to the protein is measured with a TopCount NXT. The radioactivity bound in the presence of 1.0 μM kallidine (DesArg10) is defined as non-specific binding. The concentration binding curve may be analysed using computer-aided non-linear curve fitting to determine the corresponding Ki value for the test substance.
Test results of the cynoBK1-receptor binding assay: […]

The mark [3] stands for this setting: CHO cell homogenate expressing cynomolgus BK1-receptor, radioligand kallidine (DesArg10,Leu9), [3,4-Prolyl-3,43H(N)].
Where [4] appears, read: cynoBK1-receptor binding, repeated beside clearance in the metabolic stability table.

The term Ki denotes the dissociation constant of the complex between target and ligand, obtained from inhibition or displacement. A low value points to higher affinity. In turn, `O=C(N[C@@]1(C(=O)NCc2ccc(Nc3ccc(F)cc3C(F)(F)F)cc2F)CCOC1)c1cn[nH]c(=O)c1` [Example 6, (S)-6-oxo-1,6-dihydro-pyridazine-4-carboxylic acid-{3-[2-fluoro-4-(4-fluoro-2-trifluoromethyl-phenylamino)-benzylcarbamoyl]-tetrahydrofuran-3-yl}-amide] showed a Clearance in data set [1] of 6 % Qh. The same compound registered a Ki in data set [2] (setting [3]) of 3.2 nM.
Turning to `O=C(N[C@@]1(C(=O)NCc2ccc(Nc3ccc(F)cc3C(F)(F)F)cc2)CCOC1)c1cn[nH]c(=O)c1` [Example 3, (S)-6-oxo-1,6-dihydro-pyridazine-4-carboxylic acid-{3-[4-(4-fluoro-2-trifluoromethyl-phenylamino)-benzylcarbamoyl]-tetrahydrofuran-3-yl}-amide], the Clearance in data set [1] is reported as 7 % Qh. Moreover, the Ki in data set [2] (setting [3]) and in data set [2] (setting [4]) was 12 nM throughout.
Turning to `O=C(N[C@@]1(C(=O)NCc2ccc(Nc3ccc(Br)cc3C(F)(F)F)cc2)CCOC1)c1cn[nH]c(=O)c1` [Example 8, (S)-6-oxo-1,6-dihydro-pyridazine-4-carboxylic acid-{3-[4-(4-bromo-2-trifluoromethyl-phenylamino)-benzylcarbamoyl]-tetrahydrofuran-3-yl}-amide], affinity in data set [2] (setting [3]) was put at a Ki of 37 nM.
In turn, `O=C(N[C@@]1(C(=O)NCc2ccc(Nc3ccc(Cl)cc3C(F)(F)F)cc2F)CCOC1)c1cn[nH]c(=O)c1` [Example 7, (S)-6-oxo-1,6-dihydro-pyridazine-4-carboxylic acid-{3-[4-(4-chloro-2-trifluoromethyl-phenylamino)-2-fluoro-benzylcarbamoyl]-tetrahydrofuran-3-yl}-amide] returned a Ki in data set [2] (setting [3]) of 30 nM.
`O=C(N[C@@]1(C(=O)NCc2ccc(Nc3ccc(Cl)cc3C(F)(F)F)cc2)CCOC1)c1cn[nH]c(=O)c1` [Example 4, (S)-6-oxo-1,6-dihydro-pyridazine-4-carboxylic acid-{3-[4-(4-chloro-2-trifluoromethyl-phenylamino)-benzylcarbamoyl]-tetrahydrofuran-3-yl}-amide]: the affinity in data set [2] (setting [3]), expressed as Ki, was 27 nM.
In data set [2] (setting [3]), `O=C(NC1(C(=O)NCc2ccc(Nc3ccc(Cl)cc3C(F)(F)F)cn2)CC1)c1cn[nH]c(=O)c1` [Example 2, 6-oxo-1,6-dihydro-pyridazine-4-carboxylic acid-(1-{[5-(4-chloro-2-trifluoromethyl-phenylamino)-pyridin-2-ylmethyl]-carbamoyl}-cyclopropyl)-amide] displayed a Ki of 5.1 nM.
For `O=C(NC1(C(=O)NCc2ccc(Nc3ccc(F)cc3C(F)(F)F)cn2)CC1)c1cn[nH]c(=O)c1` [Example 1, 6-oxo-5,6-dihydro-pyridazine-4-carboxylic acid-(1-{[5-(4-fluoro-2-trifluoromethyl-phenylamino)-pyridin-2-ylmethyl]-carbamoyl}-cyclopropyl)-amide], the Clearance in data set [1] came out at 1 % Qh. The Ki in data set [2] (setting [3]) and in data set [2] (setting [4]) was 3.5 nM throughout.
For `O=C(N[C@@]1(C(=O)NCc2ccc(Nc3ccccc3C(F)(F)F)cc2)CCOC1)c1cn[nH]c(=O)c1` [Example 5, (S)-6-oxo-1,6-dihydro-pyridazine-4-carboxylic acid-{3-[4-(2-trifluoromethyl-phenylamino)-benzylcarbamoyl]-tetrahydrofuran-3-yl}-amide], the Clearance in data set [1] was determined as 22 % Qh. Further, the Ki in data set [2] (setting [3]) and in data set [2] (setting [4]) was 11 nM throughout.
In data set [2] (setting [3]), `O=C(N[C@@]1(C(=O)NCc2ccc(Nc3ccccc3C(F)(F)F)cc2F)CCOC1)c1cn[nH]c(=O)c1` [Example 9, (S)-6-oxo-1,6-dihydro-pyridazine-4-carboxylic acid {3-[2-fluoro-4-(2-trifluoromethyl-phenylamino)-benzylcarbamoyl]-tetrahydro-furan-3-yl}-amide] gave a Ki of 6.6 nM.
